Experimental data as given in ChEMBL document CHEMBL3046645, “Novel 1,3-diarylpyrazole acrylamides: synthesis, antiplatelet activity screening, and in silico evaluation studies” (Med Chem Res, 2013).
Activity calls are given as the source filed them. The rule behind the calls is not given here.

Assays:
Format in all cases: functional
[1] = test system: Platelet; experiment: Antiplatelet activity in human platelet-rich plasma assessed as inhibition of arachidonic acid-induced aggregation at 100 uM incubated for 5 mins prior to arachidonic acid-challenge measured for 3 mins by turbidrometric analysis relative to control
[2] = (§1) Antiplatelet activity in human platelet-rich plasma assessed as inhibition of collagen-induced aggregation at 100 uM incubated for 5 mins prior to collagen-challenge measured for 3 mins by turbidrometric analysis relative to control
[3] = test system: Platelet; experiment: as §1
[4] = Antiplatelet activity in human platelet-rich plasma assessed as inhibition of arachidonic acid-induced aggregation incubated for 5 mins prior to arachidonic acid-challenge measured for 3 mins by turbidrometric analysis

Compound	inhibition [1]	inhibition at 100 µM [2]	inhibition [3]	IC50 [4]
O=C(/C=C/c1cn(-c2ccccc2)nc1-c1ccncc1)N1CCN(C(=O)C2CCCO2)CC1 (stereo not drawn)	inactive	68.9%	–	–
O=C(/C=C/c1cn(-c2ccccc2)nc1-c1ccncc1)N1CCN(CCOCCO)CC1	inactive	–	inactive	–
O=C(/C=C/c1cn(-c2ccccc2)nc1-c1ccncc1)N1CCN(C(=O)c2ccco2)CC1	inactive	50%	–	–
CC(=O)Oc1ccccc1C(=O)O [ASPIRIN]	–	–	–	7.7 µM
O=C(/C=C/c1cn(-c2ccccc2)nc1-c1ccncc1)NC1CCCCC1	–	71.8%	–	30.3 µM
Cc1cccc(N2CCN(C(=O)/C=C/c3cn(-c4ccccc4)nc3-c3ccncc3)CC2)c1C	inactive	–	inactive	–
O=C(/C=C/c1cn(-c2ccccc2)nc1-c1ccncc1)NCc1ccccc1	–	54.9%	–	20.2 µM
O=C(/C=C/c1cn(-c2ccccc2)nc1-c1ccncc1)N1CCN(c2ccc(C(F)(F)F)cc2)CC1	inactive	25%	–	–
O=C(O)/C=C/c1cn(-c2ccccc2)nc1-c1ccncc1	inactive	–	inactive	–
O=C(/C=C/c1cn(-c2ccccc2)nc1-c1ccncc1)N1CCC(Cc2ccccc2)CC1	inactive	–	inactive	–
O=C(/C=C/c1cn(-c2ccccc2)nc1-c1ccncc1)N1CCN(c2ccncc2)CC1	inactive	82.5%	–	–
O=C(/C=C/c1cn(-c2ccccc2)nc1-c1ccncc1)N1CCN(c2ccc(Cl)cc2)CC1	inactive	–	inactive	–
CCOc1ccccc1N1CCN(C(=O)/C=C/c2cn(-c3ccccc3)nc2-c2ccncc2)CC1	inactive	42%	–	–
O=C(/C=C/c1cn(-c2ccccc2)nc1-c1ccncc1)NC1CC1	inactive	–	inactive	–
O=C(/C=C/c1cn(-c2ccccc2)nc1-c1ccncc1)N1CCN(c2ncccn2)CC1	inactive	73.1%	–	–
O=C(/C=C/c1cn(-c2ccccc2)nc1-c1ccncc1)N1CCOCC1	Active	–	–	–
O=C(/C=C/c1cn(-c2ccccc2)nc1-c1ccncc1)N1CCCCC1	Active	–	–	–
COc1ccccc1N1CCN(C(=O)/C=C/c2cn(-c3ccccc3)nc2-c2ccncc2)CC1	inactive	–	inactive	–
O=C(/C=C/c1cn(-c2ccccc2)nc1-c1ccncc1)N1CCN(c2cccc(Cl)c2)CC1	inactive	–	inactive	–
COc1ccc(N2CCN(C(=O)/C=C/c3cn(-c4ccccc4)nc3-c3ccncc3)CC2)c(OC)c1OC	inactive	–	inactive	–
COc1ccc(CNC(=O)/C=C/c2cn(-c3ccccc3)nc2-c2ccncc2)cc1	inactive	–	inactive	–
Cc1ccc(N2CCN(C(=O)/C=C/c3cn(-c4ccccc4)nc3-c3ccncc3)CC2)cc1	inactive	–	inactive	–
O=C(/C=C/c1cn(-c2ccccc2)nc1-c1ccncc1)N1CCN(c2ccccc2)CC1	inactive	–	inactive	–
